Assay results as given in ChEMBL document CHEMBL1201862, “PubChem BioAssay data set” (2004).
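Growth conditions: 96-well plates. Treatment: test compound, 48 hours, 5 concentrations. Analysis: linear interpolation between bracketing concentrations; unreached endpoints set to highest concentration. Abbreviation: GI50, concentration required for 50% inhibition of growth.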 Activity calls are given as the source filed them. No stated cut-off is given here; in the data, active = GI50 up to about 1.1 µM and inactive = higher.

Key:
Test in all cases: growth of human tumour cells (NCI), 48 h
HT-29 = test system: HT-29
M14 = test system: M14
OVCAR-4 = test system: OVCAR-4
T47D = test system: T47D
COLO 205 = test system: COLO 205
MDA-N = test system: MDA-N
UACC-62 = test system: UACC-62
A498 = test system: A498
SR = test system: SR
NCI-H23 = test system: NCI-H23
HL-60 = test system: HL-60
SF-539 = test system: SF-539
OVCAR-8 = test system: OVCAR-8
SK-MEL-28 = test system: SK-MEL-28
HCC 2998 = test system: HCC 2998
SK-MEL-5 = test system: SK-MEL-5
HOP-62 = test system: HOP-62
NCI-H226 = test system: NCI-H226
SF-268 = test system: SF-268
SNB-75 = test system: SNB-75
BT-549 = test system: BT-549
DU-145 = test system: DU-145
LOX IMVI = test system: LOX IMVI
A549 = test system: A549
NCI-H460 = test system: NCI-H460
K562 = test system: K562
Malme-3M = test system: Malme-3M
TK-10 = test system: TK-10
IGROV-1 = test system: IGROV-1
UO-31 = test system: UO-31
KM12 = test system: KM12
CCRF-CEM = test system: CCRF-CEM
MCF7 = test system: MCF7
MOLT-4 = test system: MOLT-4
HCT-15 = test system: HCT-15
U-251 = test system: U-251
786-0 = test system: 786-0
SN12C = test system: SN12C
RPMI-8226 = test system: RPMI-8226
MDA-MB-231 = test system: MDA-MB-231
Hs-578T = test system: Hs-578T
SW-620 = test system: SW-620
UACC-257 = test system: UACC-257
HOP-92 = test system: HOP-92
NCI/ADR-RES = test system: NCI/ADR-RES
CAKI-1 = test system: CAKI-1
EKVX = test system: EKVX
SK-OV-3 = test system: SK-OV-3
SF-295 = test system: SF-295
RXF 393 = test system: RXF 393
ACHN = test system: ACHN
OVCAR-3 = test system: OVCAR-3
OVCAR-5 = test system: OVCAR-5
SK-MEL-2 = test system: SK-MEL-2
HCT-116 = test system: HCT-116
NCI-H522 = test system: NCI-H522
SNB-19 = test system: SNB-19
MDA-MB-435 = test system: MDA-MB-435
PC-3 = test system: PC-3

O=C1N=C(S)NNC12c1ccccc1-c1ccccc12
GI50 (HT-29): > 10 µM (inactive)
GI50 (M14): > 10 µM (inactive)
GI50 (OVCAR-4): > 10 µM (inactive)
GI50 (T47D): 1.98 µM (inactive)
GI50 (COLO 205): > 10 µM (inactive)
GI50 (MDA-N): > 10 µM (inactive)
GI50 (UACC-62): > 10 µM (inactive)
GI50 (A498): 3.31 µM (inactive)
GI50 (SR): > 10 µM (inactive)
GI50 (NCI-H23): > 10 µM (inactive)
GI50 (HL-60): > 10 µM (inactive)
GI50 (SF-539): > 10 µM (inactive)
GI50 (OVCAR-8): > 10 µM (inactive)
GI50 (SK-MEL-28): > 10 µM (inactive)
GI50 (HCC 2998): > 10 µM (inactive)
GI50 (SK-MEL-5): 5.22 µM (inactive)
GI50 (HOP-62): > 10 µM (inactive)
GI50 (NCI-H226): > 10 µM (inactive)
GI50 (SF-268): > 10 µM (inactive)
GI50 (SNB-75): > 10 µM (inactive)
GI50 (BT-549): > 10 µM (inactive)
GI50 (DU-145): > 10 µM (inactive)
GI50 (LOX IMVI): > 10 µM (inactive)
GI50 (A549): > 10 µM (inactive)
GI50 (NCI-H460): 5.42 µM (inactive)
GI50 (K562): > 10 µM (inactive)
GI50 (Malme-3M): > 10 µM (inactive)
GI50 (TK-10): > 10 µM (inactive)
GI50 (IGROV-1): > 10 µM (inactive)
GI50 (UO-31): 4.81 µM (inactive)
GI50 (KM12): > 10 µM (inactive)
GI50 (CCRF-CEM): > 10 µM (inactive)
GI50 (MCF7): 8.71 µM (inactive)
GI50 (MOLT-4): > 10 µM (inactive)
GI50 (HCT-15): > 10 µM
GI50 (U-251): > 10 µM (inactive)
GI50 (786-0): > 10 µM (inactive)
GI50 (SN12C): > 10 µM (inactive)
GI50 (RPMI-8226): > 10 µM (inactive)
GI50 (MDA-MB-231): > 10 µM (inactive)
GI50 (Hs-578T): 6.18 µM (inactive)
GI50 (SW-620): > 10 µM (inactive)
GI50 (UACC-257): > 10 µM (inactive)
GI50 (HOP-92): > 10 µM (inactive)
GI50 (NCI/ADR-RES): > 10 µM (inactive)
GI50 (CAKI-1): > 10 µM (inactive)
GI50 (EKVX): 2.99 µM (inactive)
GI50 (SK-OV-3): > 10 µM (inactive)

Oc1ccc2c3c1OC1c4[nH]c5c(c4CC4(O)C(C2)N(CC2CC2)CC[C@]314)CC1(O)C2Cc3ccc(O)c4c3[C@@]1(CCN2CC1CC1)C5O4 (some centres not stated)
GI50 (HT-29): 20 µM (inactive)
GI50 (M14): 17.5 µM (inactive)
GI50 (OVCAR-4): 29.8 µM (inactive)
GI50 (SF-295): 19.6 µM (inactive)
GI50 (T47D): 18.6 µM (inactive)
GI50 (COLO 205): 18.1 µM (inactive)
GI50 (MDA-N): 18.4 µM (inactive)
GI50 (RXF 393): 18.1 µM (inactive)
GI50 (UACC-62): 20.4 µM (inactive)
GI50 (A498): 17.5 µM (inactive)
GI50 (SR): 27.4 µM (inactive)
GI50 (NCI-H23): > 100 µM (inactive)
GI50 (HL-60): 21.9 µM (inactive)
GI50 (OVCAR-8): 51.9 µM (inactive)
GI50 (ACHN): > 100 µM (inactive)
GI50 (SK-MEL-28): 20.1 µM (inactive)
GI50 (HCC 2998): 18.7 µM (inactive)
GI50 (SK-MEL-5): 44 µM (inactive)
GI50 (HOP-62): 77.3 µM (inactive)
GI50 (NCI-H226): 27.8 µM (inactive)
GI50 (SF-268): 19.8 µM (inactive)
GI50 (BT-549): > 100 µM (inactive)
GI50 (OVCAR-3): 17.6 µM (inactive)
GI50 (DU-145): 37.2 µM (inactive)
GI50 (LOX IMVI): 27 µM (inactive)
GI50 (A549): 18.6 µM (inactive)
GI50 (K562): 25.4 µM (inactive)
GI50 (Malme-3M): 17 µM (inactive)
GI50 (TK-10): 21.2 µM (inactive)
GI50 (IGROV-1): > 100 µM (inactive)
GI50 (UO-31): > 100 µM (inactive)
GI50 (KM12): 17.5 µM (inactive)
GI50 (MCF7): 34.7 µM (inactive)
GI50 (OVCAR-5): 28 µM (inactive)
GI50 (SK-MEL-2): 24.2 µM (inactive)
GI50 (HCT-116): 17.5 µM (inactive)
GI50 (MOLT-4): 22.4 µM (inactive)
GI50 (NCI-H522): 19.3 µM (inactive)
GI50 (HCT-15): > 100 µM
GI50 (U-251): 19.9 µM (inactive)
GI50 (786-0): 21.3 µM (inactive)
GI50 (SN12C): 35 µM (inactive)
GI50 (RPMI-8226): 25.2 µM (inactive)
GI50 (MDA-MB-231): 24.4 µM (inactive)
GI50 (SNB-19): 24.3 µM (inactive)
GI50 (SW-620): 21.9 µM (inactive)
GI50 (UACC-257): 20.3 µM (inactive)
GI50 (MDA-MB-435): 19.9 µM (inactive)
GI50 (HOP-92): 23 µM (inactive)
GI50 (NCI/ADR-RES): > 100 µM (inactive)
GI50 (PC-3): 43.5 µM (inactive)
GI50 (CAKI-1): > 100 µM (inactive)
GI50 (EKVX): 35.6 µM (inactive)
GI50 (SK-OV-3): 43 µM (inactive)

CC[C@H](O)[C@H](C)C=C1SCCCS1
GI50 (HT-29): > 100 µM (inactive)
GI50 (M14): > 100 µM (inactive)
GI50 (OVCAR-4): > 100 µM (inactive)
GI50 (SF-295): > 100 µM (inactive)
GI50 (COLO 205): > 100 µM (inactive)
GI50 (MDA-N): > 100 µM (inactive)
GI50 (RXF 393): > 100 µM (inactive)
GI50 (UACC-62): > 100 µM (inactive)
GI50 (A498): > 100 µM (inactive)
GI50 (SR): > 100 µM (inactive)
GI50 (NCI-H23): > 100 µM (inactive)
GI50 (HL-60): 34.8 µM (inactive)
GI50 (OVCAR-8): > 100 µM (inactive)
GI50 (ACHN): > 100 µM (inactive)
GI50 (SK-MEL-28): > 100 µM (inactive)
GI50 (HCC 2998): > 100 µM (inactive)
GI50 (SK-MEL-5): > 100 µM (inactive)
GI50 (HOP-62): > 100 µM (inactive)
GI50 (NCI-H226): > 100 µM (inactive)
GI50 (SF-268): > 100 µM (inactive)
GI50 (SNB-75): > 100 µM (inactive)
GI50 (BT-549): > 100 µM (inactive)
GI50 (OVCAR-3): > 100 µM (inactive)
GI50 (DU-145): > 100 µM (inactive)
GI50 (LOX IMVI): > 100 µM (inactive)
GI50 (A549): > 100 µM (inactive)
GI50 (K562): > 100 µM (inactive)
GI50 (Malme-3M): > 100 µM (inactive)
GI50 (TK-10): > 100 µM (inactive)
GI50 (IGROV-1): > 100 µM (inactive)
GI50 (UO-31): 61.8 µM (inactive)
GI50 (KM12): > 100 µM (inactive)
GI50 (CCRF-CEM): > 100 µM (inactive)
GI50 (MCF7): > 100 µM (inactive)
GI50 (OVCAR-5): > 100 µM (inactive)
GI50 (SK-MEL-2): > 100 µM (inactive)
GI50 (HCT-116): > 100 µM (inactive)
GI50 (MOLT-4): > 100 µM (inactive)
GI50 (NCI-H522): > 100 µM (inactive)
GI50 (HCT-15): > 100 µM
GI50 (U-251): > 100 µM (inactive)
GI50 (786-0): > 100 µM (inactive)
GI50 (SN12C): > 100 µM (inactive)
GI50 (RPMI-8226): > 100 µM (inactive)
GI50 (MDA-MB-231): > 100 µM (inactive)
GI50 (Hs-578T): > 100 µM (inactive)
GI50 (SW-620): > 100 µM (inactive)
GI50 (UACC-257): > 100 µM (inactive)
GI50 (MDA-MB-435): > 100 µM (inactive)
GI50 (HOP-92): > 100 µM (inactive)
GI50 (NCI/ADR-RES): > 100 µM (inactive)
GI50 (PC-3): > 100 µM (inactive)
GI50 (CAKI-1): > 100 µM (inactive)
GI50 (EKVX): > 100 µM (inactive)
GI50 (SK-OV-3): > 100 µM (inactive)
